These results are taken from patent US20240010681A1, “PEPTIDES AND METHODS OF USE” (REALTA LIFE SCIENCES, INC., priority 2020, published 2024).

Molecules are shown by their SMILES.

The data set in a line: Pharmacokinetics, metabolite profiles and excretion of [14C]-PIC1-dPEG24 after single IV dose. The format is in vivo, rat. The procedure: […]. The six rats in Group 3 and Group 4 were further divided into two subgroups for serial blood collections at 10, 30 min and 1, 2, 3, 4, 6, 8, 24, and 48 hr. Blood was pooled by equal volume across animals at each time point, and aliquots (˜200 μL) of pooled blood were removed at each time point for total radioactivity, and the rest of blood samples were centrifuged to obtain plasma. Bile, urine, feces, and cage wash samples were collected up to 72 hr in bile duct cannulated (BDC) rats, and up to 168 hr in intact rats, and terminal blood samples were collected at the end of study (72 hr or 168 hr post-doses). The total radioactivity concentrations in the excreta, blood and plasma were determined by homogenization, combustion and/or liquid scintillation counting (LSC). The metabolite profiles and structure characterization were conducted in pooled plasma, urine, and bile samples using LC-UV/MS as well as radioactive detection. […].
The radioactive profiles of rat plasma samples for the low dose group and the high dose group were qualitatively similar.

In the case of `CC[C@H](C)[C@H](N)C(=O)N[C@@H](C)C(=O)N[C@@H](CC(C)C)C(=O)N[C@H](C(=O)N[C@@H](CC(C)C)C(=O)N[C@@H](CCC(=O)O)C(=O)N1CCC[C@H]1C(=O)N[C@H](C(=O)N[C@@H](CS)C(=O)N[C@@H](CS)C(=O)N[C@@H](CCC(N)=O)C(=O)N[C@@H](CCC(=O)O)C(=O)N[C@@H](CCCNC(=N)N)C(=O)N[C@@H](C)C(=O)N[C@@H](C)C(=O)NCCOCCOCCOCCOCCOCCOCCOCCOCCOCCOCCOCCOCCOCCOCCOCCOCCOCCOCCOCCOCCOCCOCCOCCOCCC(=O)O)[C@@H](C)CC)[C@@H](C)CC` [[^14C]-PIC1-dPEG24], where the note is “20 and 200 mg/kg dose”, the “unchanged parent compound in urine” value is “not detectable”. The “unchanged parent compound and M2768 together in pooled plasma” value (8 hr time point, small radioactive peak at 30 min post-IV-injection) was “still detectable”. Moreover, the “route of elimination of related radioactivity” value (male BDC and intact rats, single IV 20 and 200 mg/kg) is given as “urinary excretion was major route of elimination”. In addition, for the setting “rat, in vivo, intact rats, IV 20 and 200 mg/kg, read-out: plasma elimination half-lives for total radioactivity”, the half-life was ≥ 40 h. Moreover, under “single IV 20 or 200 mg/kg, mainly via urine”, the “dosed radioactivity recovered within 24 hr post-dose” value was > 70 % of the dose.
